Measured values taken from PubChem BioAssay (NCI).
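Cultured in 96-well plates, cells were exposed to test compound for 48 hours across five concentrations. GI50: concentration for 50% inhibition of growth. Definition used: TGI = concentration required for complete inhibition of growth.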

Columns and labels:
Assay in all cases: NCI-60 cell line screen, 48 h
M14 melanoma = test system: M14 melanoma
SK-MEL-2 melanoma = test system: SK-MEL-2 melanoma
EKVX NSCLC = test system: EKVX NSCLC
SF-268 CNS = test system: SF-268 CNS
SK-MEL-28 melanoma = test system: SK-MEL-28 melanoma
RXF 393 renal = test system: RXF 393 renal
NCI-H522 lung = test system: NCI-H522 lung
RPMI-8226 leukemia = test system: RPMI-8226 leukemia
HCC-2998 colon = test system: HCC-2998 colon
A498 renal = test system: A498 renal

| Structure (SMILES) | GI50 (M14 melanoma) | TGI (M14 melanoma) | GI50 (SK-MEL-2 melanoma) | TGI (SK-MEL-2 melanoma) | GI50 (EKVX NSCLC) | TGI (EKVX NSCLC) | GI50 (SF-268 CNS) | TGI (SF-268 CNS) | GI50 (SK-MEL-28 melanoma) | TGI (SK-MEL-28 melanoma) | GI50 (RXF 393 renal) | TGI (RXF 393 renal) | GI50 (NCI-H522 lung) | TGI (NCI-H522 lung) | GI50 (RPMI-8226 leukemia) | TGI (RPMI-8226 leukemia) | TGI (HCC-2998 colon) | GI50 (A498 renal) | TGI (A498 renal) | GI50 (HCC-2998 colon) |
| --- | --- | --- | --- | --- | --- | --- | --- | --- | --- | --- | --- | --- | --- | --- | --- | --- | --- | --- | --- | --- |
| COc1ccc(Cn2c(Cl)c(/C=C3/C(=O)Nc4ccccc43)c3cc(OC)c(C)cc32)cc1 | 3.27 µM | 15 µM | 19.8 µM | > 100 µM | 45.5 µM | > 100 µM | 8.94 µM | > 100 µM | 4.03 µM | > 100 µM | 4.06 µM | > 100 µM | 4.77 µM | > 100 µM | 4.26 µM | 79 µM |  |  |  |  |
| COC(=O)C1=C(C(=O)OC)SC(=C(Cl)C(=S)Sc2ccccc2N)S1 | 7.35 µM | 30.3 µM | 14.2 µM | 43.6 µM |  |  | 29.1 µM | 68.7 µM | > 100 µM | > 100 µM | 18.1 µM | 38 µM | 17.4 µM | 43.1 µM | 51.8 µM | > 100 µM |  |  |  |  |
| O=C1Nc2cccc3cc(NCC(O)CCl)cc1c23 (centres undefined) |  | > 100 µM |  | 69.9 µM |  | > 100 µM |  | > 100 µM |  | > 100 µM |  | > 100 µM |  | > 100 µM |  | > 100 µM | > 100 µM |  |  |  |
| COc1ccc(Cl)cc1Nc1nc(C(F)(F)F)ccc1C(=O)N/N=C/c1cc(OC)c(OC)c(OC)c1 | 1.61 µM | 3.93 µM | 1.76 µM | 5.35 µM | 1.36 µM | 13.5 µM | 1.32 µM | 5.75 µM | 1.83 µM | 9.26 µM |  |  | 2.29 µM | 5.83 µM | > 100 µM | > 100 µM | 19.7 µM | 2.19 µM | 7.65 µM | 2.24 µM |
| COc1ccc(CN2c3ccccc3CCc3ccccc32)cc1F | 0.354 µM | > 100 µM |  |  | 1.55 µM | > 100 µM | 0.66 µM | > 100 µM | 0.82 µM | > 100 µM |  |  | 0.609 µM | > 100 µM | 0.644 µM | > 100 µM | > 100 µM | 0.339 µM | > 100 µM | 8.9 µM |
| C[C@]12CC[C@@H]3c4ccc(O)cc4C(O)C[C@H]3[C@@H]1CCC2=O (some centres undefined) | > 100 µM | > 100 µM | > 100 µM | > 100 µM | 48.8 µM | > 100 µM | > 100 µM | > 100 µM | > 100 µM | > 100 µM |  |  | 60.8 µM | > 100 µM | 60.6 µM | > 100 µM | > 100 µM | 76.2 µM | > 100 µM | 84.2 µM |
| COc1ccc(/C=C2\C(=O)N(C(=O)Cc3ccccc3)N=C2C)cc1OC |  | > 100 µM |  | > 100 µM |  | > 100 µM |  | > 100 µM |  | > 100 µM |  |  |  | > 100 µM |  | > 100 µM | > 100 µM |  |  |  |
| O=[N+]([O-])c1nccn1COCCBr |  | > 100 µM |  | > 100 µM |  | > 100 µM |  | > 100 µM |  | > 100 µM |  |  |  | > 100 µM |  | > 100 µM |  |  |  |  |
| O=c1[nH]c(=O)n(C2OC3COC2C3O)cc1F (centres undefined) |  | > 100 µM |  | > 100 µM |  | > 100 µM |  | > 100 µM |  | > 100 µM |  | > 100 µM |  | > 100 µM |  | > 100 µM | > 100 µM |  |  |  |
| CCOC(=O)c1cc(/C=C/C(C)=C/C(=O)OC)n(C)c1C |  | > 100 µM |  |  |  | > 100 µM |  | > 100 µM |  |  |  |  |  | > 100 µM |  | > 100 µM | > 100 µM |  | > 100 µM |  |
| CCOC(=O)CC1NC(=O)CS1 (centres undefined) |  | > 100 µM |  |  |  | > 100 µM |  | > 100 µM |  | > 100 µM |  |  |  |  |  | 60.1 µM | > 100 µM |  | > 100 µM |  |
| CC1(C)C2CCC3(C2)CS(=O)(=O)N2OC231 (centres undefined) |  | 30 µM |  | 39.3 µM |  | 30.3 µM |  | 47.2 µM |  | 44.7 µM |  |  |  | 26.9 µM |  | > 100 µM | > 100 µM |  | 44.5 µM |  |
| C[C-](O)O.O/C(=C\[C-](O)c1ccccc1)c1ccccc1.O/C(=C\[C-](O)c1ccccc1)c1ccccc1.[Nd+3] (centres undefined) | 14.6 µM | 33.8 µM | 13.1 µM | 34.4 µM | 8.09 µM | 55 µM | 6.44 µM | 32.5 µM | 12.7 µM | 44.5 µM |  |  | 3.59 µM | 28.9 µM | 6.43 µM | 33.5 µM | 20.2 µM | 11.7 µM | 43.1 µM | 2.17 µM |
| CCOc1ccccc1NC(=O)CCc1nc(=S)[nH][nH]1 |  | > 100 µM |  | > 100 µM |  | > 100 µM |  | > 100 µM |  | > 100 µM |  | > 100 µM |  | > 100 µM |  | > 100 µM | > 100 µM |  |  |  |
| O=C1C2Cc3ccccc3CN2C(=O)N1CCN1CCCC1 (centres undefined) |  | > 100 µM |  | > 100 µM |  |  |  | > 100 µM |  | > 100 µM |  |  |  | > 100 µM |  | > 100 µM | > 100 µM |  | > 100 µM |  |
| N.N.N.N.N.N.O=N[O-].[Br-].[Co+3].[Co+3].[OH3+].[OH3+] | > 100 µM | > 100 µM | > 100 µM | > 100 µM | 74.3 µM | > 100 µM | > 100 µM | > 100 µM | > 100 µM | > 100 µM | > 100 µM | > 100 µM |  |  | > 100 µM | > 100 µM | > 100 µM |  |  | 58.5 µM |
